System: Nanog in CRL-2352 (ATCC) cells
Assay: Effect of valproic acid on FGF2 de-differentiation (Nanog immunocytochemistry on glass coverslips)
Assay type: cell-based, human
Conditions: 1.0 μM valproic acid with 4 ng/ml FGF2, glass coverslips, 5% O2, 6 days
Protocol: The effect of valproic acid on FGF2 de-differentiation was also studied. CRL-2352 (ATCC) cells (2000 cells per well in 24-well plates containing sterile 12 mm glass coverslips) were cultured in medium consisting of DMEM:Ham's F12 (60:40, MediaTech) with 10% Fetalclone III (Hyclone, Logan, Utah) and 4 ng/ml FGF2, with and without 1.0 μM valproic acid, in parallel cultures. Cultures were carried out in a 37° C. incubator in a humidified environment of 5% CO2, 5% O2, and 90% N2 for 6 days with medium changed at day 3. Cells were washed with DPBS and fixed with −20° C. methanol for 10 min, washed with PBS and processed for immunocytochemistry.

`CCCC(CCC)C(=O)O` [valproic acid] was tested, and the “nuclear staining for Nanog” value was “increased nuclear staining for Nanog”.
